Data set [1] relates to stable HCV 2a JFH-1 Rluc replicon cells (L31 present in NS5A). The experiment in a line: Renilla luciferase HCV replicon reporter assay, genotype 2a JFH-1. Format: cell-based. The procedure, abridged:
(§1)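 First, 3-fold serial dilutions of compound went onto replicon cells, DMSO serving as no-inhibition control and ITMN-191 at >100×EC50 as positive control. Next came 72 h incubation, lysis and Renilla luciferase measurement. Finally, EC50 was calculated by non-linear regression; replicons covered genotypes 1a H77, 1b Con1, 2a JFH-1 (L31) and J6-NS5A chimera (M31).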
A general note: A replicon is a self-replicating genome or part of one, used to study replication in cells.

Data set [2] has as its system NS5A chimeric genotype 1b Con1 replicon with genotype 4a ED43 strain NS5A gene. The experiment in a line: Replicon assay, genotype 4a NS5A chimera. Format: cell-based, HCV. Particulars: Hepatitis C virus.
The test system of data set [3] is NS5A chimeric genotype 2a JFH-1 replicon with genotype 2b MD2b-1 strain NS5A gene (M31 present). Briefly: Replicon assay, genotype 2b NS5A chimera. It counts as cell-based, HCV. The procedure, abridged: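 EC50 was fitted by non-linear regression to Renilla luciferase signal after 72 h of exposure to 3-fold serially diluted compound (10 mM DMSO stocks). Controls were DMSO (none) and ITMN-191 above 100×EC50 (full). Chimeric 2a replicons were used either stable or transiently transfected into Huh-Lunet cells.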

Data set [4] deals with NS5A chimeric genotype 1b Con1 replicon with genotype 3a S52 strain NS5A gene. Briefly: Replicon assay, genotype 3a NS5A chimera. Format: cell-based, HCV.
The subject of data set [5] is stable HCV 1b RLuc replicon cells (dicistronic genotype 1b Con1 replicon). The experiment in a line: Renilla luciferase HCV replicon reporter assay, genotype 1b. Format: cell-based. Particulars: Hepatitis C virus, 72 h. The procedure, abridged:
as §1

The subject of data set [6] is Q30R in genotype 1a NS5A (1a Pi-Rluc replicon, Huh-7-derived cured-51 cells). The experiment in a line: Replicon assay against resistance mutant 1a Q30R. Format: cell-based, HCV. Conditions: Hepatitis C virus. The procedure, abridged: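 Q30R introduced by site-directed mutagenesis into the 1a Pi-RLuc replicon; replicon RNA transiently transfected into cured-51 cells. Cells treated with 3-fold serially diluted compound for 72 h, then lysed and Renilla luciferase measured; EC50 by non-linear regression.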

For data set [7], the system named is NS5A chimeric genotype 2a JFH-1 replicon with genotype 2a J6 strain NS5A gene (M31 present). Briefly: Replicon assay, genotype 2a J6 NS5A chimera. It counts as cell-based, HCV. The procedure, abridged: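 Cells carrying the stable or transiently transfected (Huh-Lunet) dicistronic RLuc replicons received 3-fold serial compound dilutions from 10 mM DMSO stocks. After 72 h, cells were lysed and Renilla luciferase read. DMSO served as the no-inhibition control and ITMN-191 above 100×EC50 as the positive control; EC50 by non-linear regression.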

Data set [8] relates to stable HCV 1a RLuc replicon cells (dicistronic genotype 1a H77 replicon). Briefly: Renilla luciferase HCV replicon reporter assay, genotype 1a. Format: cell-based. Conditions: Hepatitis C virus, 72 h, stable 1a H77 RLuc replicon cells. The procedure, abridged:
as §1

Data set [9] can be described thus: IV and PO single dose pharmacokinetic studies in SD rats. It counts as in vivo, male Sprague-Dawley (SD) rats. Conditions: male SD rats, PO 2 mg/kg vs IV infusion 1 mg/kg; for bioavailability: Sprague-Dawley, rat, plasma, read-out: Rat % F. The procedure, abridged:
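Fasted male Sprague-Dawley rats (250-300g, n=3/group) were given 1 mg/kg IV as a 30-min jugular infusion (5% ethanol/35% PEG 400/water pH 2.0) or 2 mg/kg by oral gavage (5% ethanol/55% PEG 400/citrate pH 2.2). Plasma was sampled to 24 h and analysed by LC/MS/MS. Non-compartmental parameters were derived, and %F was calculated from the oral/IV AUC ratio.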

Setting [10] is: Hepatitis C virus, read-out: 2a JFH (nM), genotype 2a JFH-1 replicon (L31 in NS5A), stable cells.
Setting [11] is: Hepatitis C virus, read-out: 2a JFH, stable 2a JFH-1 Rluc replicon cells, L31 in NS5A, activity range.
The mark [12] stands for this setting: read-out: 4a (s) (nM), genotype 4a NS5A chimeric replicon, stable replicon cells (s).
Where [13] appears, read: read-out: 4a (s), (s), activity range.
Setting [14] is: Hepatitis C virus, 2BS, read-out: 2b (s), stably replicating replicon cells (s), activity range.
[15] abbreviates: Hepatitis C virus, read-out: 2b (s) (nM), genotype 2b MD2b-1 NS5A chimeric replicon (M31), stably replicating replicon cells (s).
Where [16] appears, read: Hepatitis C virus, read-out: 2b (t) (nM), genotype 2b MD2b-1 NS5A chimeric replicon (M31), transiently transfected (t).
Where [17] appears, read: Hepatitis C virus, read-out: 2b (t), transiently transfected (t) into Huh-Lunet cells, activity range.
[18] abbreviates: Hepatitis C virus, read-out: 3a (s) (nM), genotype 3a NS5A chimeric replicon, stable replicon cells (s).
[19] abbreviates: Hepatitis C virus, read-out: 3a (s), (s), activity range.
The mark [20] stands for this setting: Hepatitis C virus, read-out: 2a J6 (t) (nM), genotype 2a J6 NS5A chimeric replicon (M31), transiently transfected (t) into Huh-Lunet cells.
Where [21] appears, read: Hepatitis C virus, read-out: 2a J6 (t), transiently transfected (t) into Huh-Lunet cells, activity range.
Where [22] appears, read: stable 1b Con1 RLuc replicon cells, 72 hours, read-out: 1b.
Setting [23] is: Hepatitis C virus, read-out: 3a (t) (nM), genotype 3a NS5A chimeric replicon, transiently transfected (t).
The mark [24] stands for this setting: Hepatitis C virus, read-out: 3a (t), transiently transfected (t) into Huh-Lunet cells, activity range.

Results on five compounds are retold here after US10800789B2, “Antiviral compounds” (Gilead Pharmasset LLC, priority 2012, dated 2020).

Like-named read-outs stand apart in the source and are kept apart here.

In the case of `COC(=O)N[C@H](C(=O)N1[C@@H](C)CC[C@H]1c1ncc(-c2ccc3c(c2)COc2cc4c(ccc5nc([C@@H]6CC[C@H](C)N6C(=O)[C@@H](NC(=O)OC)C6CCOCC6)[nH]c54)cc2-3)[nH]1)C(C)C` [FC, Methyl [(1 S)-2-[(2S,5S)-2-(9-{2-[(2S,5S)-1-{(2S)-2-[(methoxycarbonyl)amino]-3-methylbutanoyl}-5-methylpyrrolidin-2-yl]-1H-imidazol-5-yl}-1,11-dihydroisochromeno[4′,3′:6,7]naphtho[1,2-d]imidazol-2-yl)-5-methylpyrrolidin-1-yl]-2-oxo-1-(tetrahydro-2H-pyran-4-yl)ethyl]carbamate], the EC50 in [1] (setting [10]) was 0.011 nM; in data set [1] (setting [11]), less than 0.1 nM; in data set [2] (setting [12]) it was 0.011 nM; in data set [2] (setting [13]), less than 0.1 nM; in [3] (setting [14]), less than 0.1 nM; in data set [3] (setting [15]) it was 0.048 nM. Besides, the EC50 in data set [3] (setting [16]) is 0.024 nM; in data set [3] (setting [17]), less than 0.1 nM; in [4] (setting [18]), 0.031 nM; in [4] (setting [19]), less than 0.1 nM; in data set [5] (read-out: 1b (nM), stable 1b Con1 RLuc replicon cells, 72 hours) it was 0.021 nM; in data set [6] (read-out: 1a Q30R) it was less than 0.1 nM. Also, the EC50 is 0.031 nM in data set [6] (read-out: 1a Q30R (nM)); 0.015 nM in [7] (setting [20]); less than 0.1 nM in data set [7] (setting [21]); 0.014 nM in data set [8]; less than 0.1 nM in data set [8] (activity range). Besides, in [9] (oral bioavailability), the “Rat % F” value is 0%.

For the compound `COC[C@H]1C[C@@H](c2nc(Cl)c(-c3ccc4c(c3)COc3cc5c(ccc6nc([C@@H]7CC[C@H](C)N7C(=O)[C@@H](NC(=O)OC)C(C)C)[nH]c65)cc3-4)[nH]2)N(C(=O)[C@H](NC(=O)OC)c2ccccc2)C1` [FY, Methyl {(1R)-2-[(2S,4S)-2-(4-chloro-5-{2-[(2S,5S)-1-{(2S)-2-[(methoxycarbonyl)amino]-3-methylbutanoyl}-5-methylpyrrolidin-2-yl]-1,11-dihydroisochromeno[4′,3′:6,7]naphtho[1,2-d]imidazol-9-yl}-1H-imidazol-2-yl)-4-(methoxymethyl)pyrrolidin-1-yl]-2-oxo-1-phenylethyl}carbamate], the EC50 in data set [1] (setting [10]) is 0.007 nM; in [1] (setting [11]), less than 0.1 nM; in data set [2] (setting [12]), 0.005 nM; in data set [2] (setting [13]), less than 0.1 nM; in data set [3] (setting [14]) it was less than 0.1 nM; in [3] (setting [15]) it was 0.034 nM. The EC50 in data set [4] (setting [18]) is 0.029 nM; in data set [4] (setting [19]), less than 0.1 nM; in data set [5] (setting [22]), 0.017 nM; in data set [6] (read-out: 1a Q30R), less than 0.1 nM; in data set [6] (read-out: 1a Q30R (nM)), 0.017 nM; in data set [7] (setting [20]), 0.005 nM. Moreover, the EC50 was less than 0.1 nM in [7] (setting [21]), 0.01 nM in [8] and less than 0.1 nM in [8] (activity range). The bioavailability in data set [9] is 13.5%.

In the case of `COC[C@H]1C[C@@H](c2nc(C3CC3)c(-c3ccc4c(c3)COc3cc5c(ccc6nc([C@@H]7CC[C@H](C)N7C(=O)[C@@H](NC(=O)OC)C(C)C)[nH]c65)cc3-4)[nH]2)N(C(=O)[C@H](NC(=O)OC)c2ccccc2)C1` [FZ, Methyl {(1R)-2-[(2S,4S)-2-(4-cyclopropyl-5-{2-[(2S,5S)-1-{(2S)-2-[(methoxycarbonyl)amino]-3-methylbutanoyl}-5-methylpyrrolidin-2-yl]-1,11-dihydroisochromeno[4′,3′:6,7]naphtho[1,2-d]imidazol-9-yl}-1H-imidazol-2-yl)-4-(methoxymethyl)pyrrolidin-1-yl]-2-oxo-1-phenylethyl}carbamate], the EC50 in [1] (setting [11]) is less than 0.1 nM; in data set [1] (read-out: 2a JFH, genotype 2a JFH-1 replicon (L31 in NS5A), stable cells), 0.025 nM; in data set [2] (setting [12]), 0.025 nM; in data set [2] (setting [13]) it was less than 0.1 nM; in [3] (read-out: 2b (s), genotype 2b MD2b-1 NS5A chimeric replicon (M31), stably replicating replicon cells (s)) it was 0.101 nM; in data set [3] (read-out: 2b (s), stably replicating replicon cells (s), activity range) it was 0.1 to 0.999 nM. For the same compound, the EC50 was less than 0.1 nM in data set [4] (read-out: 3a (s), (s), activity range); 0.098 nM in data set [4] (read-out: 3a (s), genotype 3a NS5A chimeric replicon, stable replicon cells (s)); 0.031 nM in data set [5] (setting [22]); less than 0.1 nM in [6] (read-out: 1a Q30R); 0.048 nM in data set [6] (read-out: 1a Q30R (nM)); 0.041 nM in [7] (read-out: 2a J6 (t), genotype 2a J6 NS5A chimeric replicon (M31), transiently transfected (t) into Huh-Lunet cells). Besides, the EC50 is less than 0.1 nM in [7] (read-out: 2a J6 (t), transiently transfected (t) into Huh-Lunet cells, activity range); 0.019 nM in data set [8]; less than 0.1 nM in data set [8] (activity range). Moreover, the bioavailability in data set [9] was found to be 18.5%.

Regarding `CC[C@H]1CC[C@@H](c2ncc(-c3ccc4c(c3)COc3cc5c(ccc6nc([C@@H]7CC[C@H](C)N7C(=O)[C@@H](NC(=O)OC)C(C)C)[nH]c65)cc3-4)[nH]2)N1C(=O)[C@@H](NC(=O)OC)C1CCOCC1` [HQ], the EC50 in [1] (setting [10]) was 0.024 nM; in data set [1] (setting [11]), less than 0.1 nM; in data set [2] (setting [12]) it was 0.02 nM; in [2] (setting [13]), less than 0.1 nM; in [3] (setting [14]) it was 0.1 to 0.999 nM; in data set [3] (setting [15]) it was 0.233 nM. Further, the EC50 in data set [3] (setting [16]) was 0.079 nM; in data set [3] (setting [17]), less than 0.1 nM; in data set [4] (setting [18]), 0.076 nM; in data set [4] (setting [19]), less than 0.1 nM; in data set [4] (setting [23]) it was 0.049 nM; in data set [4] (setting [24]), less than 0.1 nM. Further, the EC50 in [5] (setting [22]) was 0.027 nM; in [6] (read-out: 1a Q30R), less than 0.1 nM; in data set [6] (read-out: 1a Q30R (nM)), 0.031 nM; in data set [7] (setting [20]) it was 0.088 nM; in data set [7] (setting [21]), less than 0.1 nM; in [8] it was 0.022 nM. Besides, the EC50 in data set [8] (activity range) was less than 0.1 nM. Besides, the bioavailability in [9] was 34.3%.

Consider `COC(=O)N[C@H](C(=O)N1[C@@H](C)CC[C@H]1c1ncc(-c2ccc3c(c2)COc2cc4c(ccc5nc([C@@H]6C[C@@H]7CCC[C@@H]7N6C(=O)[C@@H](NC(=O)OC)C6CCOCC6)[nH]c54)cc2-3)[nH]1)C(C)C` [IA], for which the EC50 in data set [1] (setting [10]) was 0.021 nM; in data set [1] (setting [11]), less than 0.1 nM; in [2] (setting [12]) it was 0.019 nM; in [2] (setting [13]) it was less than 0.1 nM; in [3] (setting [14]), less than 0.1 nM; in data set [3] (setting [15]) it was 0.062 nM. The EC50 was 0.033 nM in data set [3] (setting [16]); less than 0.1 nM in [3] (setting [17]); 0.052 nM in data set [4] (setting [18]); less than 0.1 nM in data set [4] (setting [19]); 0.055 nM in data set [4] (setting [23]); less than 0.1 nM in [4] (setting [24]). Moreover, the EC50 in [5] (setting [22]) was 0.024 nM; in [6] (read-out: 1a Q30R), less than 0.1 nM; in data set [6] (read-out: 1a Q30R (nM)), 0.024 nM; in [7] (setting [20]), 0.024 nM; in data set [7] (setting [21]), less than 0.1 nM; in data set [8] it was 0.015 nM. This compound also displayed an EC50 in data set [8] (activity range) of less than 0.1 nM. In addition, the bioavailability in [9] was 21.8%.
